Data as given in ChEMBL document CHEMBL4651402, “Screening of ~5500 FDA-approved drugs and clinical candidates for anti-SARS-CoV-2 activity” (2021).

Test system: SARS-CoV-2
Test: microbe, parasite or virus in culture
Settings: Severe acute respiratory syndrome coronavirus 2, Vero C1008, 48 h

| Compound | IC50 | IC50 (read-out: pIC50 (converted)) |
| --- | --- | --- |
| C[C@]1(O)CCC2C3CC[C@H]4CC(=O)/C(=C/O)C[C@]4(C)C3CC[C@@]21C (stereo not given in full) | > 20 µM | > 20 µM |
| CC1C2Cc3ccc(O)cc3C1(C)CCN2CCc1ccccc1 (stereo not given) [PHENAZOCINE] | > 20 µM | > 20 µM |
| CCCSc1ccc2[nH]c(NC(=O)OC)nc2c1 [ALBENDAZOLE] | > 20 µM | > 20 µM |
| CN(C)CCCn1c(=O)c2ccccc2c2ccccc21 [FANTRIDONE] | > 20 µM | > 20 µM |
| c1ccc(N2CCN(Cc3nc4ccccc4[nH]3)CC2)nc1 [ABT-724] | > 20 µM | > 20 µM |
| COc1ccc(NC(=O)c2ccc(C(=N)N(C)C)cc2)c(C(=O)Nc2ccc(Cl)cn2)c1 [BETRIXABAN] | > 20 µM | > 20 µM |
| CC(C)CC(=O)N[C@H](C(=O)N[C@H](C(=O)N[C@@H](CC(C)C)[C@@H](O)CC(=O)N[C@@H](C)C(=O)N[C@@H](CC(C)C)[C@@H](O)CC(=O)O)C(C)C)C(C)C [PEPSTATIN] | > 20 µM | > 20 µM |
| COc1ccc(CCC(C)NCC(O)c2ccc(O)c([S+](C)[O-])c2)cc1 (stereo not given) [SULFINALOL] | > 20 µM | > 20 µM |
| CCOc1ccc2ccccc2c1C(=O)N[C@@H]1C(=O)N2[C@@H]1SC(C)(C)[C@@H]2C(=O)O [NAFCILLIN] | > 20 µM | > 20 µM |
| CC(=O)OC1CN2CCC1CC2 (stereo not given) [ACECLIDINE] | > 20 µM | > 20 µM |
| CC(=O)Nc1ccc(OCC(O)CNC(C)C)cc1 (stereo not given) [PRACTOLOL] | > 20 µM | > 20 µM |
| Cc1nnc(NS(=O)(=O)c2ccc(N)cc2)s1 [SULFAMETHIZOLE] | > 20 µM | > 20 µM |
| CC(=O)Oc1ccccc1C(=O)Oc1ccccc1C(=O)O [DIPLOSALSALATE] | > 20 µM | > 20 µM |
| CC(C)(C)c1cc(C(=O)c2cccs2)cc(C(C)(C)C)c1O [PRIFELONE] | > 20 µM | > 20 µM |
| CC(=O)OCC(=O)C12N=C(C)OC1CC1C3CCC4=CC(=O)C=CC4(C)C3(F)C(O)CC12C (stereo not given) | > 20 µM | > 20 µM |
| COc1cc(N)c(Cl)cc1C(=O)NC1CCN(CCCOc2ccc(F)cc2)CC1OC (stereo not given) [CISAPRIDE] | > 20 µM | > 20 µM |
| Cc1c(O)c(=O)ccn1C [DEFERIPRONE] | > 20 µM | > 20 µM |
| O=C(O)C(=O)CBr [BROMOPYRUVATE] | > 20 µM | > 20 µM |
| C/C=C1/[C@H](O[C@@H]2O[C@H](CO)[C@@H](O)[C@H](O)[C@H]2O)OC=C(C(=O)OC)[C@H]1CC(=O)OCCc1ccc(O)c(O)c1 [OLEUROPEIN] | > 20 µM | > 20 µM |
| Cc1cc(Nc2nc(N[C@@H](C)c3ncc(F)cn3)ncc2Cl)[nH]n1 [AZD-1480] | > 20 µM | > 20 µM |
| O=c1ccc2cc(O[C@@H]3O[C@H](CO)[C@@H](O)[C@H](O)[C@H]3O)c(O)cc2o1 [ESCULIN] | > 20 µM | > 20 µM |
| CCCCC1C(=O)N(c2ccccc2)N(c2ccc(O)cc2)C1=O (stereo not given) [OXYPHENBUTAZONE ANHYDROUS] | > 20 µM | > 20 µM |
| CN(C)CCOC(c1ccccc1)c1ccnn1C (stereo not given) [CIZOLIRTINE] | > 20 µM | > 20 µM |
| CS(=O)(=O)CCC#N | > 20 µM | > 20 µM |
| CN1C(=O)CC[C@H]1c1cccnc1 [COTININE] | > 20 µM | > 20 µM |

| Compound | IC50 | IC50 (read-out: pIC50 (converted)) |
| --- | --- | --- |
| NC1=NC(=O)C(c2ccccc2)O1 (stereo not given) [PEMOLINE] | > 20 µM | > 20 µM |
| C[C@H](CCC(=O)NCCS(=O)(=O)O)[C@H]1CC[C@H]2[C@@H]3[C@@H](O)CC4C[C@H](O)CC[C@]4(C)[C@H]3CC[C@]12C (stereo not given in full) | > 20 µM | > 20 µM |
| NC(=O)CNC1Cc2ccccc2C1 | > 20 µM | > 20 µM |
| O=P(O)(O)OC[C@H]1OC(O)[C@H](O)[C@@H](O)[C@@H]1O (stereo not given in full) | > 20 µM | > 20 µM |
| CCCOc1ccc(C(=O)OCCN(CC)CC)cc1N [PROPARACAINE] | > 20 µM | > 20 µM |
| C/C=C1\[C@H]2C=C(C)C[C@]1(N)c1ccc(=O)[nH]c1C2 [HUPERZINE A] | > 20 µM | > 20 µM |
| CCc1c(C)[nH]c2c1C(=O)C(CN1CCOCC1)CC2 (stereo not given) [MOLINDONE] | > 20 µM | > 20 µM |
| O=C(O)C[C@H](NC(=O)[C@@H]1CCCN(C(=O)CCC2CCNCC2)C1)c1cccnc1 [ELAROFIBAN] | > 20 µM | > 20 µM |
| Nc1nc(=O)n([C@H]2CC[C@@H](CO)O2)cc1F | > 20 µM | > 20 µM |
| CN1Cc2c(ccc3c2OCO3)C2C(O)Cc3cc4c(cc3C21)OCO4 (stereo not drawn) [CHELIDONINE (+)] | > 20 µM | > 20 µM |
| CCCCCCCCCCCC(=O)OCC(O)CO (stereo not given) [GLYCEROL MONOLAURATE] | > 20 µM | > 20 µM |
| CC(N)CCCC(C)(C)O (stereo not given) [HEPTAMINOL] | > 20 µM | > 20 µM |
| CCn1cc(C(=O)O)c(=O)c2cc(F)c(N3CCNCC3)nc21 [ENOXACIN] | > 20 µM | > 20 µM |
| O=C(CO)CO [DIHYDROXYACETONE] | > 20 µM | > 20 µM |
| COc1cccc(N2CCN(C3=Nc4c(F)cccc4C(CC(=O)O)N3c3cc(C(F)(F)F)ccc3OC)CC2)c1 (stereo not given) | > 20 µM | > 20 µM |
| C=C[C@@]1(C)CC(=O)[C@]2(O)[C@@]3(C)[C@@H](O)CCC(C)(C)[C@@H]3[C@H](O)[C@H](OC(C)=O)[C@@]2(C)O1 [COLFORSIN] | > 20 µM | > 20 µM |
| O=c1[nH]c(=O)n([C@H]2C[C@H](O)[C@@H](CO)O2)cc1C(F)(F)F [TRIFLURIDINE] | > 20 µM | > 20 µM |
| NC12CC3CC(CC(C3)C1)C2 [AMANTADINE] | > 20 µM | > 20 µM |
| CC(C)Oc1ccc2c(=O)c(-c3ccccc3)coc2c1 [IPRIFLAVONE] | > 20 µM | > 20 µM |
| O=C1C(CC[S+]([O-])c2ccccc2)C(=O)N(c2ccccc2)N1c1ccccc1 (stereo not given) [SULFINPYRAZONE] | > 20 µM | > 20 µM |
| Brc1c(NC2=NCCN2)ccc2nccnc12 [BRIMONIDINE] | > 20 µM | > 20 µM |
| O=c1[nH]c2ccccc2n1C1CCN(CCCC(c2ccc(F)cc2)c2ccc(F)cc2)CC1 [PIMOZIDE] | > 20 µM | > 20 µM |
| O=C(O)CCNC(=O)c1ccccc1 [BETAMIPRON] | > 20 µM | > 20 µM |
| CC(=O)O[C@]1(C(C)=O)CC[C@H]2[C@@H]3C=C(C)C4=CC(=O)CC[C@@H]4[C@H]3CC[C@@]21C [NOMEGESTROL ACETATE] | > 20 µM | > 20 µM |
| N/C(=N\C(=O)c1nc(Cl)c(N)nc1N)NCc1ccccc1 [BENZAMIL] | > 20 µM | > 20 µM |

| Compound | IC50 | IC50 (read-out: pIC50 (converted)) |
| --- | --- | --- |
| COc1ccc([C@]2(C#N)CC[C@@H](C(=O)O)CC2)cc1OC1CCCC1 [CILOMILAST] | > 20 µM | > 20 µM |
| O=C1C[C@@H](c2ccc(O)cc2)Oc2cc(O)cc(O)c21 [NARINGENIN] | > 20 µM | > 20 µM |
| CCN(CC)C(=S)S [DITIOCARB] | > 20 µM | > 20 µM |
| COc1ccnc2[nH]cc(C(=O)C(=O)N3CCN(C(=O)c4ccccc4)C[C@H]3C)c12 | > 20 µM | > 20 µM |
| CCOC(=O)[C@H](CCc1ccccc1)N[C@@H](C)C(=O)N1CCC[C@H]1C(=O)O | > 20 µM | > 20 µM |
| c1ccc(Cn2cc(CCc3ccncc3)c3ccccc32)cc1 [BENZINDOPYRINE] | > 20 µM | > 20 µM |
| CC[C@H](C)C(=O)O[C@H]1C[C@@H](C)C=C2C=C[C@H](C)[C@H](CC[C@@H]3C[C@@H](O)CC(=O)O3)[C@H]21 [LOVASTATIN] | > 20 µM | > 20 µM |
| COc1cc(NS(=O)(=O)c2ccc(N)cc2)nc(OC)n1 [SULFADIMETHOXINE] | > 20 µM | > 20 µM |
| O=C1c2ccccc2-c2cccc3cccc1c23 [BENZANTHRONE] | > 20 µM | > 20 µM |
| CCc1ccc(CCOc2ccc(CC3SC(=O)NC3=O)cc2)nc1 (stereo not given) [PIOGLITAZONE] | > 20 µM | > 20 µM |
| N#CCC(=O)NN [CYACETACIDE] | > 20 µM | > 20 µM |
| CNC(=O)c1ccc(N2C(=S)N(c3ccc(C#N)c(C(F)(F)F)c3)C(=O)C2(C)C)cc1F [ENZALUTAMIDE] | > 20 µM | > 20 µM |
| CCOC(=O)C1(c2ccccc2)CCN(CCN2CCOCC2)CC1 [MORPHERIDINE] | > 20 µM | > 20 µM |
| CC1C(=O)OC2C(O)C34C5CC(C(C)(C)C)C36C(OC(=O)C6O)OC4(C(=O)O5)C12O (stereo not given) | > 20 µM | > 20 µM |
| COc1cc2nc(N3CCN(C(=O)c4ccco4)CC3)nc(N)c2cc1OC [PRAZOSIN] | > 20 µM | > 20 µM |
| COc1ccc(-c2ccc3ncc4c(c3c2)n(-c2ccc(N3CCNCC3)c(C(F)(F)F)c2)c(=O)n4C)cn1 [BGT-226 FREE BASE] | > 20 µM | > 20 µM |
| COc1ccc(-c2nc(N3CCOCC3)c3sc(CN(C)c4ncc(C(=O)NO)cn4)cc3n2)cn1 [FIMEPINOSTAT] | > 20 µM | > 20 µM |
| O=C(c1cc2ccccc2o1)N1CCN(Cc2ccccc2)CC1 [BEFURALINE] | > 20 µM | > 20 µM |
| O=C(O)c1ccc(NC2OC(CO)C(O)C(O)C2O)cc1 (stereo not given) | > 20 µM | > 20 µM |
| CCc1cc2c(cc1N1CCC(N3CCOCC3)CC1)C(C)(C)c1[nH]c3cc(C#N)ccc3c1C2=O [ALECTINIB] | > 20 µM | > 20 µM |
| Oc1c(Br)cc(Br)c2cccnc12 [BROXYQUINOLINE] | > 20 µM | > 20 µM |
| O=C1NC(=O)C(Cc2ccc3cc(OCc4ccccc4F)ccc3c2)S1 (stereo not given) [NETOGLITAZONE] | > 20 µM | > 20 µM |
| CC(C)(C)CC(C)(C)c1cc(Cc2cc(C(C)(C)CC(C)(C)C)cc(-n3nc4ccccc4n3)c2O)c(O)c(-n2nc3ccccc3n2)c1 [BISOCTRIZOLE] | > 20 µM | > 20 µM |
| C#C[C@]1(O)CC[C@H]2[C@@H]3CCC4=C(CCC(=O)C4)[C@H]3CC[C@@]21C [NORETHYNODREL] | > 20 µM | > 20 µM |
| c1ccc(C(CCN2CCCCCC2)c2ccccc2)cc1 [PROZAPINE] | > 20 µM | > 20 µM |
